Measurements reported in patent US20080139388A1, “Synergistic Insecticide Mixtures” (priority 2004, published 2008).

Columns and labels:
Myzus persicae = Myzus persicae test (cabbage leaf dip); format: in vivo
Text: (§1) Formula for the calculation of the kill rate of a combination of two active compounds
(§2) The expected activity for a given combination of two active compounds can be calculated (cf. COLBY, S. R.; “Calculating Synergistic and Antagonistic Responses of Herbicide Combinations”, Weeds 15, pages 20-22, 1967):
(§3) if • X=the kill rate, expressed in % of the untreated control, when employing active compound A at an application rate of m ppm, • Y=the kill rate, expressed in % of the untreated control, when employing active compound B at an application rate of n ppm, • E=the kill rate, expressed in % of the untreated control, when employing active compounds A and B at application rates of m and n ppm, then
(§4) If the actual insecticidal kill rate is higher than the calculated one, the kill rates of the combination are superadditive, i.e. a synergistic effect is present. In this case, the kill rate that is actually observed has to be higher than the value, calculated using the formula above, for the expected kill rate (E).
Solvent: 7 parts by weight of dimethylformamide Emulsifier: 2 parts by weight of alkylaryl polyglycol ether
To produce a suitable preparation of active compound, 1 part by weight of active compound is mixed with the stated amounts of solvent and emulsifier, and the concentrate is diluted with emulsifier-containing water to the desired concentration.
Cabbage leaves (Brassica oleracea) which are heavily infested by the green peach aphid (Myzus persicae) are treated by being dipped into the preparation of active compound of the desired concentration.
After the desired period of time, the kill in % is determined. 100% means that all aphids have been killed; 0% means that none of the aphids have been killed. The determined kill rates are entered into Colby's formula.

[1] = system: Plutella xylostella (normally sensitive strain); experiment: Plutella xylostella test, normally sensitive strain (cabbage leaf dip); format: in vivo; conditions: 20 ppm
Text: as §1, §2, §3, §4
To produce a suitable preparation of active compound, 1 part by weight of active compound is mixed with the stated amounts of solvent and emulsifier, and the concentrate is diluted with emulsifier-containing water to the desired concentration. […]
After the desired period of time, the kill in % is determined. […] The determined kill rates are entered into Colby's formula (see sheet 1).

With `N#C/N=C1\SCCN1Cc1ccc(Cl)nc1` [thiacloprid] the “Kill in % after 1 day” value (Myzus persicae; 0.8 ppm, after 1 day (Table A3)) was 20% and the “Kill in % after 3 days” value [1] was 0%.

`C/C(=N\C#N)N(C)Cc1ccc(Cl)nc1` [acetamiprid] was tested, and the “Kill in % after 6 days” value (Myzus persicae; 0.16 ppm) was 30%.

`CNC(=O)Oc1cc(C)c(SC)c(C)c1` [methiocarb, 3,5-dimethyl-4-(methylthio)phenyl methylcarbamate] was tested, and the “Kill in % after 1 day” value (Myzus persicae; 20 ppm, after 1 day (Table A2)) was 5%, the “Kill in % after 1 day” value (Myzus persicae; 20 ppm, after 1 day (Table A3)) was 5% and the “Kill in % after 6 days” value (Myzus persicae; 100 ppm) was 50%. For the same compound, the “Kill in % after 3 days” value [1] was 0%.

With `CN/C(=N\[N+](=O)[O-])NCc1cnc(Cl)s1` [clothianidin] the “Kill in % after 1 day” value (Myzus persicae; 0.16 ppm, after 1 day (Table A2)) was 0%.
